Test system: Balb/c mice
Assay: Oxazolone-induced colon neutrophil infiltration model
Assay type: in vivo
Conditions: Mus musculus, po, 4 h, colon myeloperoxidase activity vs oxazolone control group, male Balb/c mice, 30 mg/kg orally 30 minutes before intrarectal oxazolone, colons taken four hours after, read-out: Inhibitory rate (%)
Experimental: Evaluation of Compounds in Oxazolone-Induced Colon Neutrophil Infiltration Model
<Sensitization with Oxazolone>
Five- to six-week-old male Balb/c mice (Charles River Japan) were shaven at the abdomen to an approximately 2 cm square area. A 100% ethanol solution containing 3% 4-ethoxymethylene-2-phenyl-2-oxazolin-5-one (hereinafter referred to as “oxazolone”; Sigma) was applied at 150 μl onto the abdomen of each mouse.
<Preparation of Emulsion Containing Oxazolone>
Distilled water (Otsuka Pharmaceutical) was added in an equivalent volume to 100% peanut oil (Kanto Kagaku) containing 1% oxazolone, and the components were vigorously mixed with a glass syringe (Top Co.), to prepare an emulsion containing 0.5% oxazolone.
<Induction with Oxazolone> […]
Each compound was suspended or dissolved in an aqueous solution containing 0.5% methyl cellulose (Wako), and orally administered at 30 mg/kg 30 minutes prior to the intrarectal injection of oxazolone emulsion. […] Specifically, to 10 μl of the obtained supernatant was added 200 μl of 50 mM KPB (pH6.0) containing 0.017% o-dianisidine (Sigma) and 0.0005% hydrogen peroxide (Wako), incubated at 37° C., and the change in absorbance at 450 nm was continuously measured for 1 minute using an EL340 Automated Microplate Reader (BIO-TEK) in kinetic mode. The units were the rate of change in absorbance per minute (mO.D./min.). […]

Work on `COCCN1CCN(c2ccccc2C2CCC(C(C)(C)C)CC2)CC1.Cl` (stereo not shown) [Example 19, 1-[2-(4-t-Butylcyclohexyl)phenyl]-4-(2-methoxyethyl)piperazine hydrochloride] yielded an inhibition in vivo at 30 mg/kg of 53%.
